Experimental data as given in patent US6063926A, “Substituted oximes as neurokinin antagonists” (Schering Corporation, priority 1998, dated 2000).
pKi: −log10 of the molar value.

Experiments:
NK1 receptor = NK1 receptor (Homo sapiens, UniProt P25103); experiment: neurokinin receptor binding assay, NK1 (Ki); settings: read-out: Ki (NK1)
Text: (§1) The in vitro and in vivo activity of the compounds of formula I can be determined by various procedures known in the art, such as a test for their ability to inhibit the activity of the NK1 agonist Substance P, an isolated hamster trachea NK2 assay, a test of the effect of NK1 antagonists on Substance P-induced airway microvascular leakage, measurement of NK2 activity in vivo in guinea pigs, measurement of bronchoconstriction due to NKA, and neurokinin receptor binding assay(s). Typical procedures are described in WO96/34857, published Nov. 7, 1996. NK3 activity is determined by following a procedure similar to that described in the literature, e.g., Molecular Pharmacol., 48 (1995), p. 711-716.
(§2) % Inhibition is the difference between the percent of maximum specific binding (MSB) and 100%. The percent of MSB is defined by the following equation, wherein "dpm" is disintegrations per minute: [formula]
(§3) Using the test procedures described above, the following 35 data (Ki) were obtained for exemplified compounds: […]

NK2 receptor = target: T1, NK2 receptor (Homo sapiens, UniProt P21452); experiment: neurokinin receptor binding assay, NK2 (Ki); settings: read-out: Ki (NK2)
T1 sequence (P21452 1-398): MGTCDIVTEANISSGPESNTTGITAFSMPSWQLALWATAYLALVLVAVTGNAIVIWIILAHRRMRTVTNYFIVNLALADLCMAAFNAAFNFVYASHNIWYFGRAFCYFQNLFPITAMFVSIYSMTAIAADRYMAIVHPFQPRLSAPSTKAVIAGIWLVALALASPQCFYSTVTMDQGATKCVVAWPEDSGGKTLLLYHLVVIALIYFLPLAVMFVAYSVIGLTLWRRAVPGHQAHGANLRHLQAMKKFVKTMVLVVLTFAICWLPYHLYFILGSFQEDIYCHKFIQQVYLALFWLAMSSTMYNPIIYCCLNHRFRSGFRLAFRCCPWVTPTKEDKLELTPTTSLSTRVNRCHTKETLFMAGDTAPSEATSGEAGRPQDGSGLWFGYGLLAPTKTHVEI
Text: as §1, §2, §3

Chain of NK1 receptor (P25103 whole entry): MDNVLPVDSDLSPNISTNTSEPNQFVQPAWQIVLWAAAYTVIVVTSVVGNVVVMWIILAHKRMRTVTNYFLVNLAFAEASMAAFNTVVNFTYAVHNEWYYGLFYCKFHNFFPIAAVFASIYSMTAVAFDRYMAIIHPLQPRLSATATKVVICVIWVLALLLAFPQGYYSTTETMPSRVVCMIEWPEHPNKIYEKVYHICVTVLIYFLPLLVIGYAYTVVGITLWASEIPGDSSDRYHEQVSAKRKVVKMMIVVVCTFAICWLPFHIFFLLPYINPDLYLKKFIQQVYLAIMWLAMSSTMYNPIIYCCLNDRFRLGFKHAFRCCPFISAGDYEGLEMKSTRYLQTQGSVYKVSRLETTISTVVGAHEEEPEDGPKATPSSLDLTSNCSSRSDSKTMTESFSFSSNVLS

SMILES | pKi (NK1 receptor) | pKi (NK2 receptor)
CN(CC(=NOCCCS(=O)(=O)O)C(CCN1CCC(N2CCCCC2=O)CC1)c1ccc(Cl)c(Cl)c1)C(=O)c1cc(Cl)cc(Cl)c1 (stereo not drawn) [Example 17K] | 8.48 | 8.57
Cc1cc(C(=O)N(C)CC(=NOCC(N)=NO)C(CCN2CCC(O)(c3ccccc3)CC2)c2ccc(Cl)c(Cl)c2)cc(Cl)n1 (stereo not drawn) [Example 31] | 9.40 | 8.74
CNC(=O)CC1CCCN(C2CCN(CCC(C(CN(C)C(=O)c3cc(Cl)cc(Cl)c3)=NOCC#N)c3ccc(Cl)c(Cl)c3)CC2)C1=O (stereo not drawn) [Example 15B] | 8.77 | 9.10
CON=C(CN(C)C(=O)c1cc(C)nc(Cl)c1)C(CCN1CCC(O)(c2ccccc2)CC1)c1ccc(Cl)c(Cl)c1 (stereo not drawn) [Example 30A] | 8.85 | 8.72
CON=C(CN(C)C(=O)c1cc(Cl)cc(Cl)c1)C(CCN1CCC(N2CCCC(CC(=O)N3CCC(OC)CC3)C2=O)CC1)c1ccc(Cl)c(Cl)c1 (stereo not drawn) [Example 25] | 9.05 | 9.15

Next, values leading:

pKi (NK1 receptor) | pKi (NK2 receptor) | SMILES
9.22 | 9.10 | CON=C(CN(C)C(=O)c1cc(Cl)cc(Cl)c1)C(CCN1CCC(N2CCCC(CC(=O)N3CCCC3)C2=O)CC1)c1ccc(Cl)c(Cl)c1 (stereo not drawn) [Example 12F]
9.40 | 9.22 | CCN(CC(=NOC)C(CCN1CCC(N2CCC[C@H](CC(N)=O)C2=O)CC1)c1ccc(Cl)c(Cl)c1)C(=O)c1cc(Cl)cc(Cl)c1 (stereo partly drawn) [Example 28C]
9.70 | 9.52 | CON=C(CN(C)C(=O)c1cc(Cl)cc(Cl)c1)[C@H](CCN1CCC(N2CCC[C@H](CC(=O)OC)C2=O)CC1)c1ccc(Cl)c(Cl)c1 [Example 13F]
9.70 | 9.40 | CON=C(N)CON=C(CN(C)C(=O)c1cc(C)cc(C)c1)C(CCN1CCC(N2CCCCC2=O)CC1)c1ccc(Cl)c(Cl)c1 (stereo not drawn) [Example 18M]
9.10 | 9.00 | CCN(CC(=NOC)C(CCN1CCC(N2CCCC(CC(=O)NC)C2=O)CC1)c1ccc(Cl)c(Cl)c1)C(=O)c1cc(Cl)cc(Cl)c1 (stereo not drawn) [Example 28B]
9.40 | 9.40 | Cc1cc(C)cc(C(=O)N(C)CC(=NOCC#N)C(CCN2CCC(N3CCCCC3=O)CC2)c2ccc(Cl)c(Cl)c2)c1 (stereo not drawn) [Example 18D]
9.30 | 9.70 | CNC(=O)CC1CCCN(C2CCN(CCC(C(CN(C)C(=O)c3cc(Cl)cc(Cl)c3)=NOCF)c3ccc(Cl)c(Cl)c3)CC2)C1=O (stereo not drawn) [Example 15K]
